Our source for the Ki and MIC values is patent US7192974B2, “Hydroxymethyl substituted dihydroisoxazole derivatives useful as antibiotic agents” (AstraZeneca AB, priority 2003, dated 2007).

SMILES strings stand for the structures. In brackets after ≈: the same amount, converted by molar mass. Where two headings read alike, the source gives them in different places.

Test [1] has as its target T1, MAO-A (Homo sapiens, UniProt P21397).
T1 construct: made in house; host or cells: yeast
T1 sequence (P21397 1-527): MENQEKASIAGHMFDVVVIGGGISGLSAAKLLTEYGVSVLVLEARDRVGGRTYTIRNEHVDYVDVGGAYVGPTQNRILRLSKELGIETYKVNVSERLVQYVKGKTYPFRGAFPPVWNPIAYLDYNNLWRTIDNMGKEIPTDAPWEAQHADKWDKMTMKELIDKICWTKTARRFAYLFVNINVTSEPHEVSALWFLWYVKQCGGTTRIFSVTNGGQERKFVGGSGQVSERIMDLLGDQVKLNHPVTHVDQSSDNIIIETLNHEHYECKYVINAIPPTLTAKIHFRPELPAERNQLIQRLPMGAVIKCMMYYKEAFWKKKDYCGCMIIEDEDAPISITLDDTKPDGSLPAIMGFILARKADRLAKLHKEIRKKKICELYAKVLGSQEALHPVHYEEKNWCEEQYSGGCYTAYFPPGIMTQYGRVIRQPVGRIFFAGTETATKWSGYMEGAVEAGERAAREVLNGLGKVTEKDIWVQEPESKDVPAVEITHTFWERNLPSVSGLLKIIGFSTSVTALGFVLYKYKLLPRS
Briefly: MAO-A in-vitro assay, human liver enzyme expressed in yeast. It counts as biochemical. As for the experimental part: The activity of the compounds of the invention against MAO-A was tested using a standard in-vitro assay based on human liver enzyme expressed in yeast as described in Biochem. Biophys. Res. Commun. 1991, 181, 1084–1088.

The subject of test [2] is Streptococcus pneumoniae. Nature of the test: MIC, Streptococci on agar with 5% defibrinated horse blood. The test is classed as cell-based. The conditions noted are these: 5% carbon dioxide, 48 hours. As to the method:
(§1) The following results were obtained on a standard in-vitro test system. The activity is described in terms of the minimum inhibitory concentration (MIC) determined by the agar-dilution technique with an inoculum size of 10^4 CFU/spot. Typically, compounds are active in the range 0.01 to 256 μg/ml. Streptococci and enterococci were tested on agar supplemented with 5% defibrinated horse blood, an inoculum of 10^4 CPU/spot and an incubation temperature of 37° C. in an atmosphere of 5% carbon dioxide for 48 hours—blood is required for the growth of some of the test organisms. Fastidious Gram negative organisms were tested in Mueller-Hinton broth, supplemented with hemin and NAD, grown aerobically for 24 hours at 37° C., and with an innoculum of 5×10^4 CFU/well.

The test system of test [3] is Moraxella catarrhalis. Briefly: MIC, fastidious Gram negative organisms in Mueller-Hinton broth. The test is classed as cell-based. To be noted: Mueller-Hinton broth with hemin and NAD, 24 hours, 5×10^4 CFU/well. As for the experimental part: as §1
Test [4] relates to Haemophilus influenzae. The test is described as above. It counts as cell-based. To be noted: Mueller-Hinton broth with hemin and NAD, 24 hours, 5×10^4 CFU/well. As for the experimental part: as §1
Test [5] has as its system Staphylococcus aureus MSQS. Nature of the test: MIC by agar-dilution, Staphylococci on agar. It counts as cell-based. The conditions noted are these: MSQS = methicillin sensitive and quinolone sensitive, inoculum 10^4 CFU/spot, 37° C., 24 hours. As for the experimental part:
(§2) The following results were obtained on a standard in-vitro test system. The activity is described in terms of the minimum inhibitory concentration (MIC) determined by the agar-dilution technique with an inoculum size of 10^4 CFU/spot. Typically, compounds are active in the range 0.01 to 256 μg/ml.
(§3) Staphylococci were tested on agar, using an inoculum of 10^4 CFU/spot and an incubation temperature of 37° C. for 24 hours—standard test conditions for the expression of methicillin resistance.

Test [6] deals with Staphylococcus aureus MRQR. Briefly: MIC by agar-dilution, Staphylococci on agar. To be noted: MRQR = methicillin resistant and quinolone resistant, inoculum 10^4 CFU/spot, 37° C., 24 hours. The test is classed as cell-based. As for the experimental part:
as §2, §3

As usually defined, the Ki is a measure of affinity in units of concentration, obtained from inhibition or displacement. For the compound `O=C1O[C@@H](Cn2ccnn2)CN1c1ccc(-c2ccc(C3=NO[C@H](CO)C3)nc2)c(F)c1` [Example 1, (5R)-3-(3-Fluoro-4-{6-[(5S)-5-(hydroxymethyl)-4,5-dihydroisoxazol-3-yl]pyridin-3-yl}phenyl)-5-(1H-1,2,3-triazol-1-ylmethyl)-1,3-oxazolidin-2-one], the inhibition constant (Ki) in test [1] (human liver enzyme expressed in yeast, read-out: Ki value (MAO-A)) worked out at 20 µM. Besides, the MIC stood at 0.02 µg/mL (≈ 0.0456 µM) in test [2]; 0.5 µg/mL (≈ 1.14 µM) in test [3]; 4 µg/mL (≈ 9.12 µM) in test [4]; 0.25 µg/mL (≈ 0.57 µM) in test [5]; 0.5 µg/mL (≈ 1.14 µM) in test [6].

As to `O=C1O[C@@H](Cn2ccnn2)CN1c1ccc(-c2ccc(C3=NO[C@@H](CO)C3)nc2)c(F)c1` [Example 2, (5R)-3-(3-Fluoro-4-{6-[(5R)-5-(hydroxymethyl)-4,5-dihydroisoxazol-3-yl]pyridin-3-yl}phenyl)-5-(1H-1,2,3-triazol-1-ylmethyl)-1,3-oxazolidin-2-one], in test [1] (read-out: MAO-A Ki), the Ki was 0.7 µM.

For the compound `CC(=O)NC[C@H]1CN(c2ccc(-c3ccc(C4=NO[C@H](CO)C4)nc3)c(F)c2)C(=O)O1` [Example 3, N-{[(5S)-3-(3-Fluoro-4-{6-[(5S)-5-(hydroxymethyl)-4,5-dihydroisoxazol-3-yl]pyridin-3-yl}phenyl)-2-oxo-1,3-oxazolidin-5-yl]methyl}acetamide], the Ki in test [1] (read-out: MAO-A Ki) is 9 µM.

On to `CC(=O)NC[C@H]1CN(c2ccc(-c3ccc(C4=NO[C@@H](CO)C4)nc3)c(F)c2)C(=O)O1` [Example 4, N-{[(5S)-3-(3-Fluoro-4-{6-[(5R)-5-(hydroxymethyl)-4,5-dihydroisoxazol-3-yl]pyridin-3-yl}phenyl)-2-oxo-1,3-oxazolidin-5-yl]methyl}acetamide], for which, in test [1] (read-out: MAO-A Ki), the inhibitory constant (Ki) came to 3 µM.
